Reference: PMC4386948, “Artemether-lumefantrine co-administration with antiretrovirals: population pharmacokinetics and dosing implications” (British Journal of Clinical Pharmacology, 2014)
Like-named read-outs stand apart in the source and are kept apart here. Each block holds one compound with its values, some of them ahead of it.

Legend:
[1] = cited from earlier work
[2] = Population pharmacokinetics of artemether/dihydroartemisinin alone and with efavirenz, nevirapine or lopinavir/ritonavir (non-linear mixed effects modelling of plasma concentrations); type: in vivo, human; details: for Vc/F, apparent volume of distribution of the central compartment, population estimate [RSE %] / CL/F, apparent elimination clearance, population estimate [RSE %]: HIV-infected adults, oral artemether-lumefantrine, plasma; for CL/F, apparent elimination clearance, population estimate [RSE %]: parent fully converted to metabolite; for exposure: nevirapine or lopinavir/ritonavir (all three antiretroviral drugs); for LOPCL/F, effect on elimination clearance by concomitant treatment with lopinavir/ritonavir: concomitant lopinavir/ritonavir 400/100 mg, positive = increase
From the text: Study 1 was a parallel group study in HIV-infected patients. Inclusion criteria were age >18 years, informed written consent and a confirmed HIV diagnosis. Exclusion criteria were anaemia (haemoglobin levels below 8 g dl^-1), viral loads above 400 counts ml^-1, malaria parasitaemia, abnormal liver or renal function, pregnancy, the use of substances which inhibit or induce CYP enzymes or P-glycoprotein, use of herbal medicines, prolonged QT interval, or any intercurrent illness. Ethics approval was received from the Uganda National HIV/AIDS Research Committee (ARC 056) and the Uganda National Council of Science and Technology (HS 195) and the study was registered with http://ClinicalTrials.gov (NCT 00619944). Study 2 was a three period, crossover study in HIV-infected patients. Inclusion and exclusion criteria were the same as for study 1 (i.e. age >18 years, informed written consent and a confirmed HIV diagnosis) except that there were no restrictions based on viral load, and patients with hypersensitivity to artemisinins, lumefantrine or halofantrine or any history of cardiac disease were excluded from the study. Ethics approval was received from the Uganda National HIV/AIDS Research Committee (ARC 059) and from the Uganda National Council of Science and Technology (HS 196). The study was registered at http://ClinicalTrials.gov (NCT00620438). Patients in the first arm were treated with 400/100 mg of lopinavir/ritonavir (Aluvia®, Abbott Laboratories, Abbott Park, Illinois, USA) and two nucleoside reverse transcriptase inhibitors (zidovudine and didanosine or tenofovir and emtricitabine, regional non-controlled procurement). The drugs were taken twice daily for at least 1 month before the start of the study. Patients in the second arm had not yet started their HIV therapy. At the initiation of the study all patients received a single dose of 80 mg artemether and 480 mg lumefantrine (four tablets) (Coartem®, Novartis Pharma AG, Basel, Switzerland; Batch number: F0660). Venous plasma samples were drawn at 1, 2, 4, 6, 8, 12, 24, 48 and 72 h post-dose. At the start of the study, all patients received a standard treatment of artemether and lumefantrine (80/480 mg twice daily for 3 days; Coartem®). Plasma samples were collected after the last dose at 1, 2, 4, 8, 12, 24, 48, 72, 96 and 120 h post-dosing. […] Patients received HIV treatment alone for 1 month and then were given a standard six dose treatment of artemether and lumefantrine concomitantly. Plasma samples were again collected after the last artemether-lumefantrine dose. Artemether/dihydroartemisinin and lumefantrine were quantified in plasma samples according to previously published methods. Artemether and dihydroartemisinin were measured using solid phase extraction and liquid chromatography coupled with tandem mass spectrometric detection. The total coefficient of variation (%CV) was less than 6% and the lower limit of quantification was set to 1.4 ng ml^-1. Lumefantrine was measured using solid phase extraction followed by liquid chromatography with ultraviolet detection. The total coefficient of variation was below 6% and the lower limit of quantification was set to 25 ng ml^-1. Modelling and simulations were performed in NONMEM v7.12 (Icon Development Solutions, Ellicott City, Maryland, USA). Model discrimination was based on the objective function value (OFV) which is proportional to -2 times the log-likelihood of the data. […]2.6.0 was used to document the modelling process. R v2.14.2 (the R Foundation for Statistical Computing, Vienna, Austria) and the package Xpose v4.3.5 [43] was used to perform model diagnostics. Perl-speaks-NONMEM v3.5.3 was used for automation throughout the modelling process. Data below the limit of quantification were initially omitted or modelled as categorical data (M3-method), if necessary. […]

[3] = Population pharmacokinetics of lumefantrine/desbutyl-lumefantrine alone and with efavirenz, nevirapine or lopinavir/ritonavir (non-linear mixed effects modelling of plasma concentrations); type: in vivo, human; details: for CL/F, apparent elimination clearance, population estimate [RSE %]: parent fully converted to metabolite; for LOPCL/F, effect on elimination clearance by concomitant treatment with lopinavir/ritonavir: concomitant lopinavir/ritonavir 400/100 mg; for LOPCL/F, effect on elimination clearance by concomitant treatment with lopinavir/ritonavir / EFZCL/F, effect on elimination clearance by concomitant treatment with efavirenz: positive = increase; for EFZCL/F, effect on elimination clearance by concomitant treatment with efavirenz: concomitant efavirenz 600 mg
From the text: Study 1 was a parallel group study in HIV-infected patients. Inclusion criteria were age >18 years, informed written consent and a confirmed HIV diagnosis. Exclusion criteria were anaemia (haemoglobin levels below 8 g dl^–1), viral loads above 400 counts ml^−1, malaria parasitaemia, abnormal liver or renal function, pregnancy, the use of substances which inhibit or induce CYP enzymes or P-glycoprotein, use of herbal medicines, prolonged QT interval, or any intercurrent illness. Ethics approval was received from the Uganda National HIV/AIDS Research Committee (ARC 056) and the Uganda National Council of Science and Technology (HS 195) and the study was registered with http://ClinicalTrials.gov (NCT 00619944).
Study 2 was a three period, crossover study in HIV-infected patients. Inclusion and exclusion criteria were the same as for study 1 (i.e. age >18 years, informed written consent and a confirmed HIV diagnosis) except that there were no restrictions based on viral load, and patients with hypersensitivity to artemisinins, lumefantrine or halofantrine or any history of cardiac disease were excluded from the study. Ethics approval was received from the Uganda National HIV/AIDS Research Committee (ARC 059) and from the Uganda National Council of Science and Technology (HS 196). The study was registered at http://ClinicalTrials.gov (NCT00620438).
Patients in the first arm were treated with 400/100 mg of lopinavir/ritonavir (Aluvia®, Abbott Laboratories, Abbott Park, Illinois, USA) and two nucleoside reverse transcriptase inhibitors (zidovudine and didanosine or tenofovir and emtricitabine, regional non-controlled procurement). The drugs were taken twice daily for at least 1 month before the start of the study. Patients in the second arm had not yet started their HIV therapy. At the initiation of the study all patients received a single dose of 80 mg artemether and 480 mg lumefantrine (four tablets) (Coartem®, Novartis Pharma AG, Basel, Switzerland; Batch number: F0660). Venous plasma samples were drawn at 1, 2, 4, 6, 8, 12, 24, 48 and 72 h post-dose.
At the start of the study, all patients received a standard treatment of artemether and lumefantrine (80/480 mg twice daily for 3 days; Coartem®). Plasma samples were collected after the last dose at 1, 2, 4, 8, 12, 24, 48, 72, 96 and 120 h post-dosing. After 1 week of wash-out, patients started HIV treatment with either nevirapine (200 mg) or efavirenz (600 mg) combined with the nucleoside reverse transcriptase inhibitors zidovudine and lamivudine. Patients received HIV treatment alone for 1 month and then were given a standard six dose treatment of artemether and lumefantrine concomitantly. Plasma samples were again collected after the last artemether-lumefantrine dose.
Artemether/dihydroartemisinin and lumefantrine were quantified in plasma samples according to previously published methods. Artemether and dihydroartemisinin were measured using solid phase extraction and liquid chromatography coupled with tandem mass spectrometric detection. […] Lumefantrine was measured using solid phase extraction followed by liquid chromatography with ultraviolet detection.
Desbutyl-lumefantrine was measured using liquid chromatography (Model 1200 system, Agilent Technologies) coupled with tandem mass spectrometric detection (API5000 triple-quadrupole system, AB Sciex). Desbutyl-lumefantrine and its analogue internal standard (C28H28CL3NO [39]) were extracted from plasma samples (100 μl) by protein precipitation followed by phospholipid removal (Hybrid SPE-Precipitation 96-wellplate, 575656-U, Supelco).

[4] = HIV-infected adults, oral artemether-lumefantrine, plasma
[5] = concomitant lopinavir/ritonavir
[6] = stated in methods, no reference given

- Vc/F, apparent volume of distribution of the central compartment, population estimate [RSE %] [2]: 1090 [8.69] l
- CL/F, apparent elimination clearance, population estimate [RSE %] [2]: 317 [8.25] l h^−1
- Hill coefficient in the maturation model (auto-induction) ([2]; MMAX 1 FIX, MF50 62 FIX, reduced dataset): 0.445 [43.9 ^‡]
- decrease of relative bioavailability ([2]; concomitant efavirenz): 71%
- exposure ([2]; concomitant efavirenz): decreased
- LOPCL/F, effect on elimination clearance by concomitant treatment with lopinavir/ritonavir [2]: 32.8%
- LOPCL/F, effect on elimination clearance by concomitant treatment with lopinavir/ritonavir ([2]; listed as Artemether): 32.8 [21.5] %
- decrease of relative bioavailability ([2]; concomitant nevirapine): 66%
- MTT, mean transit time of the absorption phase, population estimate [RSE %] ([2]; three transit compartments): 0.970 [6.58] h
Structure (SMILES): CO[C@H]1O[C@@H]2O[C@@]3(C)CC[C@H]4[C@H](C)CC[C@@H]([C@H]1C)[C@@]24OO3 [artemether]
- terminal half-life [1]: 1.5 to 2.0 h

- CL/F, apparent elimination clearance, population estimate [RSE %] [3, 4]: 489 [5.98] l h^−1
- exposure [3, 5]: decreased exposure
- LOPCL/F, effect on elimination clearance by concomitant treatment with lopinavir/ritonavir [3]: 392%
- LOPCL/F, effect on elimination clearance by concomitant treatment with lopinavir/ritonavir ([3]; listed as Desbutyl-Lumefantrine): 392 [17.6] %
- exposure ([3]; concomitant nevirapine, due to lower bioavailability of lumefantrine): decreased
Structure (SMILES): CCCCNCC(O)c1cc(Cl)cc2c1-c1ccc(Cl)cc1/C2=C/c1ccc(Cl)cc1 (centres unmarked) [desbutyl-lumefantrine]

- Vc/F, apparent volume of distribution of the central compartment, population estimate [RSE %] [2]: 14.9 [39.8] l
- CL/F, apparent elimination clearance, population estimate [RSE %] [2]: 160 [4.93] l h^−1
- exposure ([2]; concomitant efavirenz): decreased
- LOPCL/F, effect on elimination clearance by concomitant treatment with lopinavir/ritonavir [2]: 143%
- LOPCL/F, effect on elimination clearance by concomitant treatment with lopinavir/ritonavir ([2]; listed as Dihydroartemisinin): 143 [19.7] %
- decrease of elimination clearance ([2]; concomitant nevirapine): 44%
- NEVCL/F, effect on elimination clearance by concomitant treatment with nevirapine ([2]; concomitant nevirapine 200 mg): −44.5 [14.5] %
Structure (SMILES): C[C@H]1[C@@H](O)O[C@@H]2O[C@@]3(C)CC[C@H]4[C@H](C)CC[C@@H]1[C@@]24OO3 [dihydroartemisinin]
- half-life [1]: 48 to 126 min
- terminal half-life [1, 6]: 1 to 2 h

- Q/F, inter-compartment clearance, population estimate [RSE %] [3, 4]: 2.86 [19.4] l h^−1
- VP/F, apparent volume of distribution of the peripheral compartment, population estimate [RSE %] [3, 4]: 111 [9.14] l
- Vc/F, apparent volume of distribution of the central compartment, population estimate [RSE %] [3, 4]: 68.9 [27.1] l
- CL/F, apparent elimination clearance, population estimate [RSE %] [3, 4]: 4.77 [5.30] l h^−1
- EFZCL/F, effect on elimination clearance by concomitant treatment with efavirenz [3]: 72.6%
- EFZCL/F, effect on elimination clearance by concomitant treatment with efavirenz ([3]; listed as Lumefantrine): 72.6 [17.2] %
- decrease of elimination clearance [3, 5]: 62%
- LOPCL/F, effect on elimination clearance by concomitant treatment with lopinavir/ritonavir [3]: −62.1 [8.48] %
- lowering of relative bioavailability ([3]; concomitant nevirapine): 25%
- MTT, mean transit time of the absorption, population estimate [RSE %] ([3]; one transit compartment): 6.27 [21.2] h
Structure (SMILES): CCCCN(CCCC)CC(O)c1cc(Cl)cc2c1-c1ccc(Cl)cc1/C2=C/c1ccc(Cl)cc1 (centres unmarked) [lumefantrine]
- elimination half-life [1]: 2 to 4 days
- increase of exposure for a 100% dose increase (dose limited absorption, assumed in simulations) [1]: 70%
- systemic exposure relative to its metabolite desbutyl-lumefantrine [1]: 85- to 300 fold
- terminal half-life [1, 6]: 79.2 h
